Tested on: 616215-338-R-J1-PDC complex spheroid viability
Experiment: Anticancer human tumor 616215-338-R-J1-PDC patient-derived colon adenocarcinoma cell line growth inhibition [POLQ]
Conditions: for IC50: curve of first compound; for viability, T/C: stronger effect = lower value
Outline: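 Growth inhibition in 3D: complex spheroids (tumor PDC, HUVEC, MSC) treated with POLQ inhibitor combinations; where Cmax unknown, highest tested concentration 10 microM, except SN-38 at 1 microM.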

[1] = second compound 0.0316 µM, first compound 0.0316 µM
[2] = second compound 0.0316 µM, first compound 0.1 µM
[3] = second compound 0.0316 µM, first compound 0.316 µM
[4] = second compound 0.0316 µM, first compound 1 µM
[5] = second compound 0.0316 µM, first compound 3.16 µM
[6] = second compound 0.0316 µM, first compound 10 µM
[7] = second compound 0.1 µM, first compound 0.0316 µM
[8] = second compound 0.1 µM, first compound 0.1 µM
[9] = second compound 0.1 µM, first compound 0.316 µM
[10] = second compound 0.1 µM, first compound 1 µM
[11] = second compound 0.1 µM, first compound 3.16 µM
[12] = second compound 0.1 µM, first compound 10 µM
[13] = second compound 0.316 µM, first compound 0.0316 µM
[14] = second compound 0.316 µM, first compound 0.1 µM
[15] = second compound 0.316 µM, first compound 0.316 µM
[16] = second compound 0.316 µM, first compound 1 µM
[17] = second compound 0.316 µM, first compound 3.16 µM
[18] = second compound 0.316 µM, first compound 10 µM
[19] = second compound 1 µM, first compound 0.0316 µM
[20] = second compound 1 µM, first compound 0.1 µM
[21] = second compound 1 µM, first compound 0.316 µM
[22] = second compound 1 µM, first compound 1 µM
[23] = second compound 1 µM, first compound 3.16 µM
[24] = second compound 1 µM, first compound 10 µM
[25] = second compound 3.16 µM, first compound 0.0316 µM
[26] = second compound 3.16 µM, first compound 0.1 µM
[27] = second compound 3.16 µM, first compound 0.316 µM
[28] = second compound 3.16 µM, first compound 1 µM
[29] = second compound 3.16 µM, first compound 3.16 µM
[30] = second compound 3.16 µM, first compound 10 µM
[31] = second compound 10 µM, first compound 0.0316 µM
[32] = second compound 10 µM, first compound 0.1 µM
[33] = second compound 10 µM, first compound 0.316 µM
[34] = second compound 10 µM, first compound 1 µM
[35] = second compound 10 µM, first compound 3.16 µM
[36] = second compound 10 µM, first compound 10 µM
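Note: spheroids exposed to compounds for one week before readout.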
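Throughout, for viability, T/C: percent viability relative to DMSO vehicle wells taken as 100%.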

COc1cccc2c1C(=O)c1c(O)c3c(c(O)c1C2=O)CC(O)(C(=O)CO)CC3OC1CC(N)C(O)C(C)O1 (stereo unspecified) + COC1C(OC(N)=O)C(O)C(Oc2ccc3c(O)c(NC(=O)c4ccc(O)c(CC=C(C)C)c4)c(=O)oc3c2C)OC1(C)C
IC50 (second compound 0.0316 µM): 948 nM
IC50 (second compound 0.1 µM): 762 nM
IC50 (second compound 0.316 µM): 864 nM
IC50 (second compound 1 µM): 964 nM
IC50 (second compound 3.16 µM): 778 nM
IC50 (second compound 10 µM): 1410 nM
viability, T/C [1]: 98.8%
viability, T/C [2]: 102%
viability, T/C [3]: 79.2%
viability, T/C [4]: 52.5%
viability, T/C [5]: 8.11%
viability, T/C [6]: 1.26%
viability, T/C [7]: 110%
viability, T/C [8]: 100%
viability, T/C [9]: 69%
viability, T/C [10]: 49.2%
viability, T/C [11]: 9.57%
viability, T/C [12]: 1.74%
viability, T/C [13]: 106%
viability, T/C [14]: 97.8%
viability, T/C [15]: 71.8%
viability, T/C [16]: 55.5%
viability, T/C [17]: 5.27%
viability, T/C [18]: 0.89%
viability, T/C [19]: 118%
viability, T/C [20]: 110%
viability, T/C [21]: 86.5%
viability, T/C [22]: 53.7%
viability, T/C [23]: 6.46%
viability, T/C [24]: 0.25%
viability, T/C [25]: 102%
viability, T/C [26]: 105%
viability, T/C [27]: 79.9%
viability, T/C [28]: 41.9%
viability, T/C [29]: 9.53%
viability, T/C [30]: 0.27%
viability, T/C [31]: 99.6%
viability, T/C [32]: 102%
viability, T/C [33]: 76.2%
viability, T/C [34]: 70.4%
viability, T/C [35]: 7.3%
viability, T/C [36]: 0.34%

Nc1ccn(C2OC(CO)C(O)C2(F)F)c(=O)n1 (stereo unspecified) + COC1C(OC(N)=O)C(O)C(Oc2ccc3c(O)c(NC(=O)c4ccc(O)c(CC=C(C)C)c4)c(=O)oc3c2C)OC1(C)C
IC50 (second compound 0.0316 µM): < 31.6 nM
IC50 (second compound 0.1 µM): 65.7 nM
IC50 (second compound 0.316 µM): 65.7 nM
IC50 (second compound 1 µM): 61.7 nM
IC50 (second compound 3.16 µM): 57.9 nM
IC50 (second compound 10 µM): 59.6 nM
viability, T/C [1]: 49.3%
viability, T/C [2]: 32.9%
viability, T/C [3]: 24%
viability, T/C [4]: 35%
viability, T/C [5]: 34%
viability, T/C [6]: 30%
viability, T/C [7]: 62.5%
viability, T/C [8]: 42.8%
viability, T/C [9]: 28.5%
viability, T/C [10]: 29.1%
viability, T/C [11]: 30.1%
viability, T/C [12]: 35.3%
viability, T/C [13]: 56.9%
viability, T/C [14]: 46%
viability, T/C [15]: 26.4%
viability, T/C [16]: 27.7%
viability, T/C [17]: 32.1%
viability, T/C [18]: 32.9%
viability, T/C [19]: 60.1%
viability, T/C [20]: 42.7%
viability, T/C [21]: 24.4%
viability, T/C [22]: 23.2%
viability, T/C [23]: 32.6%
viability, T/C [24]: 29.3%
viability, T/C [25]: 64.8%
viability, T/C [26]: 39.5%
viability, T/C [27]: 23.1%
viability, T/C [28]: 27.8%
viability, T/C [29]: 30.6%
viability, T/C [30]: 30%
viability, T/C [31]: 69.3%
viability, T/C [32]: 34.6%
viability, T/C [33]: 28.5%
viability, T/C [34]: 28.1%
viability, T/C [35]: 28.4%
viability, T/C [36]: 36.5%

O=c1[nH]cc(F)c(=O)[nH]1 + COC1C(OC(N)=O)C(O)C(Oc2ccc3c(O)c(NC(=O)c4ccc(O)c(CC=C(C)C)c4)c(=O)oc3c2C)OC1(C)C
IC50 (second compound 0.0316 µM): > 10000 nM
IC50 (second compound 0.1 µM): > 10000 nM
IC50 (second compound 0.316 µM): > 10000 nM
IC50 (second compound 1 µM): > 10000 nM
IC50 (second compound 3.16 µM): > 10000 nM
IC50 (second compound 10 µM): > 10000 nM
viability, T/C [1]: 101%
viability, T/C [2]: 94.6%
viability, T/C [3]: 73.4%
viability, T/C [4]: 61.1%
viability, T/C [5]: 60.7%
viability, T/C [6]: 68.7%
viability, T/C [7]: 99.4%
viability, T/C [8]: 96.3%
viability, T/C [9]: 75.3%
viability, T/C [10]: 64.2%
viability, T/C [11]: 61%
viability, T/C [12]: 61.9%
viability, T/C [13]: 100%
viability, T/C [14]: 97.2%
viability, T/C [15]: 67.3%
viability, T/C [16]: 59.3%
viability, T/C [17]: 60%
viability, T/C [18]: 63%
viability, T/C [19]: 95.8%
viability, T/C [20]: 94.1%
viability, T/C [21]: 75.2%
viability, T/C [22]: 58.1%
viability, T/C [23]: 52.1%
viability, T/C [24]: 59%
viability, T/C [25]: 99.2%
viability, T/C [26]: 107%
viability, T/C [27]: 75.7%
viability, T/C [28]: 69.8%
viability, T/C [29]: 65.4%
viability, T/C [30]: 65.8%
viability, T/C [31]: 111%
viability, T/C [32]: 99.2%
viability, T/C [33]: 68.5%
viability, T/C [34]: 57.9%
viability, T/C [35]: 54.2%
viability, T/C [36]: 61.2%

Reference: PubChem BioAssay AID1963843 (Molecular Pharmacology Branch, DTP, NCI, 2024)
